Key:
Human Melanocortin (MC3) = molecular target: T1, Human Melanocortin (MC3) (Homo sapiens, UniProt P41968); assay: Radioligand binding, human melanocortin MC3 membranes, FlashPlate, [125I]-NDP-αMSH; conditions: compound at 10 μM, [125I]-NDP-αMSH
T1 construct: purchased Perkin Elmer Biosignal
How it was run: (§1)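 Cloned human receptor membranes were coated onto FlashPlate wells and incubated with radioligand and compound (added from a 0.5 mM DMSO daughter plate) for 1 hour at room temperature in the dark. Scintillation counting gave percent inhibition, with DMSO defining total and reference ligand defining non-specific binding.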

Human μ-opioid (MOP) = molecular target: T2, Human μ-opioid (MOP) (Homo sapiens, UniProt P35372); assay: Radioligand binding, human μ-opioid (MOP) membranes, FlashPlate, [3H]-Naloxone; conditions: compound at 10 μM, [3H]-Naloxone
T2 construct: purchased Perkin Elmer Biosignal
T2 sequence (P35372 whole entry): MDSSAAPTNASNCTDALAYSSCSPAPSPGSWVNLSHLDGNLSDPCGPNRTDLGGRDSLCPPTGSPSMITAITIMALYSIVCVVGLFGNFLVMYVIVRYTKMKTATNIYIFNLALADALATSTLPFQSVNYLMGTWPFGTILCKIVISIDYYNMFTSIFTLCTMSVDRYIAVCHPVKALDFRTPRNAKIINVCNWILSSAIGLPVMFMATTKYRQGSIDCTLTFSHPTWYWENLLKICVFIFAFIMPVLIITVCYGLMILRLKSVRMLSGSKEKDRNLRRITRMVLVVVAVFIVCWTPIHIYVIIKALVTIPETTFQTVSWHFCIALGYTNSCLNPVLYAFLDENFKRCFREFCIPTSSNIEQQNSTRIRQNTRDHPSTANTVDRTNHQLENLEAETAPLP
How it was run: as §1

Human neurokinin (NK1) = molecular target: T3, Human neurokinin (NK1) (Homo sapiens, UniProt P25103); assay: Radioligand binding, human neurokinin NK1 membranes, filtration, [125I]-Substance P; conditions: compound at 10 μM, [125I]-Substance P
T3 construct: purchased Perkin Elmer Biosignal
T3 sequence (P25103 whole entry): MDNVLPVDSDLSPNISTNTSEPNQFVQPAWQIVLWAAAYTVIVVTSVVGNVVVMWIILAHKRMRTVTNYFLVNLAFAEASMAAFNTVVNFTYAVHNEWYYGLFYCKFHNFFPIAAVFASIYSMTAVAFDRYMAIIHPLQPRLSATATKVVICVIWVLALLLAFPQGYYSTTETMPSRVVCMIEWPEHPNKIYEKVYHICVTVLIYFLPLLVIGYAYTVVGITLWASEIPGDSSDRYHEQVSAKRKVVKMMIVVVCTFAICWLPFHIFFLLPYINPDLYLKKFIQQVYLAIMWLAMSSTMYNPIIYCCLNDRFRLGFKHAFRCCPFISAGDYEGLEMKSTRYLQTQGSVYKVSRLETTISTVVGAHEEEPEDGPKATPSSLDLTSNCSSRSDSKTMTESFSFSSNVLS
How it was run: (§2)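 Percent inhibition of radioligand binding measured on recombinant human membranes: NK1 with [125I]-Substance P, KOP with [3H]-Diprenorphine. Incubation 1 h at room temperature, then harvest onto 0.3% PEI-soaked filters, cold Tris-HCl pH 7.4 washes and scintillation counting; non-specific binding from reference ligand wells.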

Human δ-opioid (DOP) = molecular target: T4, Human δ-opioid (DOP) (Homo sapiens, UniProt P41143); assay: Radioligand binding, human δ-opioid (DOP) membranes, FlashPlate, [3H]-Bremazocine; conditions: compound at 10 μM, [3H]-Bremazocine
T4 construct: purchased Perkin Elmer Biosignal
T4 sequence (P41143 whole entry): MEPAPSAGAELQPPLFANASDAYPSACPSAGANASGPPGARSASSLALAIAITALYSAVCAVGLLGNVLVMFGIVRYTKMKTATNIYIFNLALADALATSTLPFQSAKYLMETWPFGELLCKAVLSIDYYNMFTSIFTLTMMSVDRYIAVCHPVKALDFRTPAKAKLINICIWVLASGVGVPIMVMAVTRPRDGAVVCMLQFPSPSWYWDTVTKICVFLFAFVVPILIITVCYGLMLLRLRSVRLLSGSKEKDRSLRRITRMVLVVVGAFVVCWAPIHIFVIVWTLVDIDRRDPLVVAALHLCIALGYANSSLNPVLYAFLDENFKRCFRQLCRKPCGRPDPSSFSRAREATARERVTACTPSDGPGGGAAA
How it was run: as §1

[1] = molecular target: T5, Human melanin-concentrating hormone (MCH1) (Homo sapiens, UniProt Q99705); assay: Radioligand binding, human melanin-concentrating hormone MCH1 membranes, FlashPlate, [125I]-S36057; conditions: compound at 10 μM
T5 construct: purchased Perkin Elmer Biosignal
T5 sequence (Q99705 whole entry): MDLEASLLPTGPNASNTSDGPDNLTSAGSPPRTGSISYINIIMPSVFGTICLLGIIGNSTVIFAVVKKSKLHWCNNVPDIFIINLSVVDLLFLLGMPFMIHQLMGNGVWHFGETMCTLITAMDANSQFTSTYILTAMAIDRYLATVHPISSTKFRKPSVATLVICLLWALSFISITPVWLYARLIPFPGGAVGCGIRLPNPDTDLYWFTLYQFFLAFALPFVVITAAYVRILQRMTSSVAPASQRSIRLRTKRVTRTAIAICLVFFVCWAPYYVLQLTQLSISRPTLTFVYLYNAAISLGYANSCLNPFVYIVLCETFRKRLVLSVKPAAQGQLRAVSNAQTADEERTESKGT
How it was run: as §1

[2] = molecular target: T6, Human neuropeptide Y (NPY-Y1) (Homo sapiens, UniProt P25929); assay: Radioligand binding, human neuropeptide Y NPY-Y1 membranes, FlashPlate, [125I]-PYY; conditions: compound at 10 μM, [125I]-PYY
T6 construct: purchased Perkin Elmer Biosignal
T6 sequence (P25929 1-384): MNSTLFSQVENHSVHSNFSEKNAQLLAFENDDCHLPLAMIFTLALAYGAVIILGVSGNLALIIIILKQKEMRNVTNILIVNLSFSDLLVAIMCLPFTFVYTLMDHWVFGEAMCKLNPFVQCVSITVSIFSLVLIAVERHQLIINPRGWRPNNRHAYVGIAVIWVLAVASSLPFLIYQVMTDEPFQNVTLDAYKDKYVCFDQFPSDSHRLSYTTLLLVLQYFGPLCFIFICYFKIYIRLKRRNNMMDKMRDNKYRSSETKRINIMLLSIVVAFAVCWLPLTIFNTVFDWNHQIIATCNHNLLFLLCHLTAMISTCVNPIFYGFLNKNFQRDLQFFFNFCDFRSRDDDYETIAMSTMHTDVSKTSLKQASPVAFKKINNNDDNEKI
How it was run: as §1

Human κ-Opioid (KOP) = molecular target: T7, Human κ-Opioid (KOP) (Homo sapiens, UniProt P41145); assay: Radioligand binding, human κ-opioid (KOP) membranes, filtration, [3H]-Diprenorphine; conditions: compound at 10 μM, [3H]-Diprenorphine
T7 construct: purchased Perkin Elmer Biosignal
T7 sequence (P41145 whole entry): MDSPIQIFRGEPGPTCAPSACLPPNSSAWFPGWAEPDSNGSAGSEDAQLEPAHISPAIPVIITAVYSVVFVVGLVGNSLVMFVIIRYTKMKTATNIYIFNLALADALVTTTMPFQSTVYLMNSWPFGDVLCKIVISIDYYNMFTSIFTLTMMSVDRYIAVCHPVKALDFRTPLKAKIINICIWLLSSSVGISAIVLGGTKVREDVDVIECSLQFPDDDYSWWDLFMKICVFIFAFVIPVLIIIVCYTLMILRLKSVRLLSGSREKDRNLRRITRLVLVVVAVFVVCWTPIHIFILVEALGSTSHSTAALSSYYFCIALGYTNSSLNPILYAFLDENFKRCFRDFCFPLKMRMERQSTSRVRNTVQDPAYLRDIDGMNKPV
How it was run: as §2

Human melanocortin (MC5) = molecular target: T8, Human melanocortin (MC5) (Homo sapiens, UniProt P33032); assay: Radioligand binding, human melanocortin MC5 membranes, FlashPlate, [125I]-NDP-αMSH; conditions: compound at 10 μM, [125I]-NDP-αMSH
T8 construct: purchased Perkin Elmer Biosignal
T8 sequence (P33032 whole entry): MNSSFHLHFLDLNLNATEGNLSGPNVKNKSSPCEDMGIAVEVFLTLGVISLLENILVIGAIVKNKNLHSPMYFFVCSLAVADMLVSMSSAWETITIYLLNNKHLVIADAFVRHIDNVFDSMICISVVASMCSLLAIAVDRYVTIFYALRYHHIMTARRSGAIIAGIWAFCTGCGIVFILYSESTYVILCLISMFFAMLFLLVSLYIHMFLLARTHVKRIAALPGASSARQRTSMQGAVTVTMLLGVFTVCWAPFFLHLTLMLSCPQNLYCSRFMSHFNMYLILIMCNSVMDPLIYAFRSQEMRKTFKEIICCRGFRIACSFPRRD
How it was run: as §1

Mouse urotensin (mUR2) = molecular target: T9, Mouse urotensin (mUR2) (Mus musculus, UniProt Q8VIH9); assay: Radioligand binding, mouse urotensin mUR2 membranes, FlashPlate, [125I]-Urotensin II; conditions: compound at 10 μM, [125I]-Urotensin II
T9 construct: purchased Perkin Elmer Biosignal
T9 sequence (Q8VIH9 1-385): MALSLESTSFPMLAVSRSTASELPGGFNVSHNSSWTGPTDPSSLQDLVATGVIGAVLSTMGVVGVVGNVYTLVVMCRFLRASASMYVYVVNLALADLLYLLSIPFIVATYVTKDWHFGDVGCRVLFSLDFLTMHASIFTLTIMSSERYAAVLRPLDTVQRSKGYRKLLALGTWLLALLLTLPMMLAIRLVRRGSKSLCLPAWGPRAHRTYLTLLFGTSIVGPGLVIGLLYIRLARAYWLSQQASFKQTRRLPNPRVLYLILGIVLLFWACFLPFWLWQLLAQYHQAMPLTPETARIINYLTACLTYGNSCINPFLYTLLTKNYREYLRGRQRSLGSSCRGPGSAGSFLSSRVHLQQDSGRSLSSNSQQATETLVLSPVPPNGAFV
How it was run: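 Cloned mouse urotensin (mUR2) receptor membranes from Perkin Elmer Biosignal were immobilized in FlashPlate microplates using a proprietary coating. Each well got 19.5 μl buffer, then 0.5 μl of DMSO, reference ligand, or compound. Adding 5 μl of [125I]-Urotensin II, diluted to 5× final concentration in binding buffer, started binding. Plates were sealed with TopSeal-A and incubated 1 hour at room temperature in the dark. Wells were counted for 30 seconds each on a TopCount after a 60-second delay, and percentage inhibition was calculated.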

Human opioid (ORL1) = molecular target: T10, Human opioid (ORL1) (Homo sapiens, UniProt P41146); assay: Radioligand binding, human opioid ORL1 membranes, FlashPlate, [125I]-Nociceptin; conditions: compound at 10 μM, [125I]-Nociceptin
T10 construct: purchased Perkin Elmer Biosignal
T10 sequence (P41146 whole entry): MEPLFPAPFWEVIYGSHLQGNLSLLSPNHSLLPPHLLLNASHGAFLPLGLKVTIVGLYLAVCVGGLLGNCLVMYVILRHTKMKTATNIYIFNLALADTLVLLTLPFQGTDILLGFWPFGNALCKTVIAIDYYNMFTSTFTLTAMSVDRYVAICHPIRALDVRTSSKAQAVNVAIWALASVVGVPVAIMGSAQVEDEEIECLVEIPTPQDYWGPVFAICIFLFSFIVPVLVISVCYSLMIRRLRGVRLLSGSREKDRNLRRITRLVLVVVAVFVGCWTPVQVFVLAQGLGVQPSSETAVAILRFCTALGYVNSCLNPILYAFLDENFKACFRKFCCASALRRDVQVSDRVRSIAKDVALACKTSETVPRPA
How it was run: as §1

Human Melanocortin (MC4) = molecular target: T11, Human Melanocortin (MC4) (Homo sapiens, UniProt P32245); assay: Radioligand binding, human melanocortin MC4 membranes, FlashPlate, [125I]-NDP-αMSH; conditions: compound at 10 μM, [125I]-NDP-αMSH
T11 construct: purchased Perkin Elmer Biosignal
T11 sequence (P32245 whole entry): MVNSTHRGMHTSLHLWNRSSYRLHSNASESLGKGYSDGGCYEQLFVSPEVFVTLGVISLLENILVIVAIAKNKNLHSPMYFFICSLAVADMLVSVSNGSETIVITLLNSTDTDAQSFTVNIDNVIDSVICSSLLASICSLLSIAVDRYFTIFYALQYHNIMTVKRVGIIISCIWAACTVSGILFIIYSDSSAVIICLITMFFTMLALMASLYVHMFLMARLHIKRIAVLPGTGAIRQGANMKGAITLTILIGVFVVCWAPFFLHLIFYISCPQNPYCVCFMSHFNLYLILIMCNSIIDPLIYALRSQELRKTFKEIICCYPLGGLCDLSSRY
How it was run: as §1

T1 sequence (P41968 whole entry): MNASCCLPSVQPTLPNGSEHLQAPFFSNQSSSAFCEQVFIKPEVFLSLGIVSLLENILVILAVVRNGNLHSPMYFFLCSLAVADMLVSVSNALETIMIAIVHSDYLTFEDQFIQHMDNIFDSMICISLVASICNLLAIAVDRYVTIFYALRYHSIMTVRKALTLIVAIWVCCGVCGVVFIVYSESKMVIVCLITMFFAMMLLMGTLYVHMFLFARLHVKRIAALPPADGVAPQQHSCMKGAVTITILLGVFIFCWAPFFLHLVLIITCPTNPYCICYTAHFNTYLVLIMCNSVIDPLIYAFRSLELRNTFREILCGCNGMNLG

Question: For `NCCC(=O)NC1C(OCc2ccc(Cl)cc2)OC(COCc2ccc(Cl)cc2)C(O)C1OCc1ccc2ccccc2c1` (single isomer, unassigned) [compound 481], which “A3: inhibition of radioligand binding, human melanocortin (MC3)” value (Human Melanocortin (MC3)) is on record?
Answer: Its value is “+ (“+” indicates greater than 50% inhibition at 10 μM)”.

Question: And the “A7: inhibition of radioligand binding, human μ-opioid (MOP)” value (Human μ-opioid (MOP))?
Answer: The value was “− (“−” indicates less than 50% inhibition at 10 μM)”.

Question: And the “A8: inhibition of radioligand binding, human neurokinin (NK1)” value (Human neurokinin (NK1))?
Answer: The value was “+ (“+” indicates greater than 50% inhibition at 10 μM)”.

Question: What about the “A1: inhibition of radioligand binding, human δ-opioid (DOP)” value (Human δ-opioid (DOP)) of the same compound?
Answer: Its value is “− (“−” indicates less than 50% inhibition at 10 μM)”.

Question: And the “A6: inhibition of radioligand binding, human melanin-concentrating hormone (MCH1)” value ([1]; [125I]-S36057)?
Answer: Its value is “+ (“+” indicates greater than 50% inhibition at 10 μM)”.

Question: What about the “A9: inhibition of radioligand binding, human neuropeptide Y (NPY-Y1)” value [2] of the same compound?
Answer: Its value is “− (“−” indicates less than 50% inhibition at 10 μM)”.

Question: What about the “A2: inhibition of radioligand binding, human κ-opioid (KOP)” value (Human κ-Opioid (KOP); 10 µM) of the same compound?
Answer: Its value is “+ (“+” indicates greater than 50% inhibition at 10 μM)”.

Question: What about the “A5: inhibition of radioligand binding, human melanocortin (MC5)” value (Human melanocortin (MC5)) of the same compound?
Answer: The value was “+ (“+” indicates greater than 50% inhibition at 10 μM)”.

Question: What about the “A11: inhibition of radioligand binding, mouse urotensin (mUR2)” value (Mouse urotensin (mUR2)) of the same compound?
Answer: Its value is “− (“−” indicates less than 50% inhibition at 10 μM)”.

Question: What about the “A10: inhibition of radioligand binding, human opioid (ORL1)” value (Human opioid (ORL1)) of the same compound?
Answer: The value was “+ (“+” indicates greater than 50% inhibition at 10 μM)”.

Question: What about the “A4: inhibition of radioligand binding, human melanocortin (MC4)” value (Human Melanocortin (MC4)) of the same compound?
Answer: Its value is “+ (“+” indicates greater than 50% inhibition at 10 μM)”.

Question: Which “A3: inhibition of radioligand binding” value (Human Melanocortin (MC3); human MC3 membranes, 10 µM) does the source give for `NCCCC(=O)NC1C(OCc2ccc3ccccc3c2)OC(COCc2ccc(Cl)cc2)C(O)C1OCc1ccccc1` (single isomer, unassigned) [compound 469] here?
Answer: The value was “− (“−” indicates less than 50% inhibition at 10 μM)”.

Question: And the “A7: inhibition of radioligand binding” value (Human μ-opioid (MOP); human MOP membranes)?
Answer: The value was “− (“−” indicates less than 50% inhibition at 10 μM)”.

Question: What about the “A8: inhibition of radioligand binding” value (Human neurokinin (NK1); human NK1 membranes) of the same compound?
Answer: Its value is “+ (“+” indicates greater than 50% inhibition at 10 μM)”.

Question: And the “A1: inhibition of radioligand binding” value (Human δ-opioid (DOP); human DOP membranes)?
Answer: The value was “− (“−” indicates less than 50% inhibition at 10 μM)”.

Question: What about the “A6: inhibition of radioligand binding” value ([1]; [125I]-S36057, human MCH1 membranes) of the same compound?
Answer: The value was “− (“−” indicates less than 50% inhibition at 10 μM)”.

Question: And the “A9: inhibition of radioligand binding” value ([2]; human NPY-Y1 membranes)?
Answer: The value was “− (“−” indicates less than 50% inhibition at 10 μM)”.

Question: And the “A2: inhibition of radioligand binding” value (Human κ-Opioid (KOP); human KOP membranes)?
Answer: Its value is “− (“−” indicates less than 50% inhibition at 10 μM)”.

Question: And the “A5: inhibition of radioligand binding” value (Human melanocortin (MC5); human MC5 membranes)?
Answer: Its value is “+ (“+” indicates greater than 50% inhibition at 10 μM)”.

Question: And the “A11: inhibition of radioligand binding” value (Mouse urotensin (mUR2); mouse mUR2 membranes)?
Answer: Its value is “− (“−” indicates less than 50% inhibition at 10 μM)”.

Question: What about the “A10: inhibition of radioligand binding” value (Human opioid (ORL1); human ORL1 membranes, 10 µM) of the same compound?
Answer: Its value is “− (“−” indicates less than 50% inhibition at 10 μM)”.

Question: What about the “A4: inhibition of radioligand binding” value (Human Melanocortin (MC4); human MC4 membranes, 10 µM) of the same compound?
Answer: Its value is “+ (“+” indicates greater than 50% inhibition at 10 μM)”.

Reference: patent US20080009418A1, “Selective Inhibitors” (Alchemia LTD., priority 2004, published 2008)
